Values after ≈ are worked out from the molar mass of the structure shown.
Legend:
Assay type in all cases: functional
Details in all cases: read-out: ED50 (the source's name)
[1] = test system: SK-OV-3; experiment: Cytotoxicity against human SKOV3 cells
[2] = test system: XF498; experiment: Cytotoxicity against human XF498 cells
[3] = test system: HCT-15; experiment: Cytotoxicity against human HCT15 cells
[4] = test system: SK-MEL-2; experiment: Cytotoxicity against human SK-MEL-2 cells
[5] = test system: A549; experiment: Cytotoxicity against human A549 cells

Compound | EC50 [1] [µg/mL] | EC50 [2] [µg/mL] | EC50 [3] [µg/mL] | EC50 [4] [µg/mL] | EC50 [5] [µg/mL]
CCCCCCCCCCC/C=C/C[C@@H](OS(=O)(=O)O)[C@@H](O)[C@@H](N)CO | 8.2 (≈ 20.7 µM) | 4.6 (≈ 11.6 µM) | 3.7 (≈ 9.35 µM) | 4 (≈ 10.1 µM) | 9.9 (≈ 25 µM)
CCCCCCCCCC/C=C/C[C@@H](OS(=O)(=O)O)[C@@H](O)[C@@H](N)CO | 0.3 (≈ 0.786 µM) | 0.3 (≈ 0.786 µM) | 0.3 (≈ 0.786 µM) | 0.3 (≈ 0.786 µM) | 0.3 (≈ 0.786 µM)

From ChEMBL document CHEMBL1150606, “Cytotoxic sphingosine 4-sulfates from the sponge Spirastrella abata” (2002)
